# Columns and labels:
# [1] = LogD (shake flask method); type: physicochemical
# Source text: LogD can be measured using the generic shake flask method as described in Lars-Goran Danielsson, Yu Hui Zhang, Trends in Analytical Chemistry, 1996, 15(4), 188-196, and also by the method described in B. Law and D. Temesi, J. Chromatogr. B 748 (2000), 21-30.
# [2] = target: T1, human IGF1R (Homo sapiens, UniProt P08069); experiment: Inhibition of Insulin-Like Growth Factor-1 Receptor Phosphorylation in R+ cells; type: cell-based; details: median; R+ cells stimulated with 30 nM IGF1
# T1 construct: expressed in transfected cells; host or cells: R+ cells (R- mouse fibroblasts transfected with human IGF1R)
# T1 sequence (P08069 31-1367): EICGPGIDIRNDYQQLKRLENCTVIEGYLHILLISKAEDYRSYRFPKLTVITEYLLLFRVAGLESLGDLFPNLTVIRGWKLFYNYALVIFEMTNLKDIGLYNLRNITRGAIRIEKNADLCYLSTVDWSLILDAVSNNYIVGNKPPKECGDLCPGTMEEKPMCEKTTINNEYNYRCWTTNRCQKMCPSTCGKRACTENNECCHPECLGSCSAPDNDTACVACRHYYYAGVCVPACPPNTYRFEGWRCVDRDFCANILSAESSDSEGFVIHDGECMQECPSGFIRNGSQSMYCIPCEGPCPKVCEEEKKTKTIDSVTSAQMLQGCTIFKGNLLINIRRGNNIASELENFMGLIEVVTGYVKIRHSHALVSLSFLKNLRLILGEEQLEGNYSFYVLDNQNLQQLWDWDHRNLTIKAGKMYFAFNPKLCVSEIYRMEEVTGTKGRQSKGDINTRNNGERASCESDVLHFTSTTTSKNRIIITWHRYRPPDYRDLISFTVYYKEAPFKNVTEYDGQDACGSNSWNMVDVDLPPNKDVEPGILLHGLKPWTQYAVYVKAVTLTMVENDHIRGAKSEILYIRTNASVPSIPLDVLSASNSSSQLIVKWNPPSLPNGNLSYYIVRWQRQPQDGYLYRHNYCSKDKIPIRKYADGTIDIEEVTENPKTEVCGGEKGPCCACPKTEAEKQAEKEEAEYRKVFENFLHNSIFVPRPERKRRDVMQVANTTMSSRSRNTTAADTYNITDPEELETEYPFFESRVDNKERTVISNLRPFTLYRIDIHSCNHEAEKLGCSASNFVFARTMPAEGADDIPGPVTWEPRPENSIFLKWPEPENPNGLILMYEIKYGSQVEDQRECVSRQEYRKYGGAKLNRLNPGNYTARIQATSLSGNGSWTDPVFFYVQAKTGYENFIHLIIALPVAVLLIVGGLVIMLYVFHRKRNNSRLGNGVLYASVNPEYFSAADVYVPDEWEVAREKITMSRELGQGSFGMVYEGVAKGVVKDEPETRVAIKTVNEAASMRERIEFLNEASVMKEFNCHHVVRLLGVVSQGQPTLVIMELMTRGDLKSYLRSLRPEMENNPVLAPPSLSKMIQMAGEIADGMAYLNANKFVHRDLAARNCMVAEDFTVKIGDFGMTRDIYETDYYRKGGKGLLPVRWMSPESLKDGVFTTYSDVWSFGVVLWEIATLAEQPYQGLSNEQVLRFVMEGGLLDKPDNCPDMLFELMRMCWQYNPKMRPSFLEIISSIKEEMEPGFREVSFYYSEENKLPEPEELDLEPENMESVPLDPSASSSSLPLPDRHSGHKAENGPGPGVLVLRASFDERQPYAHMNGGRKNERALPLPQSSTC
# Description: This immunofluorescence end point cell assay measures the ability of a test compound to reduce the measured levels of IGF1R phosphorylation after IGF1 stimulation in R cells. R^+ cells are derived by transfection of R^− mouse fibroblast cells with human IGF1R. R^+ cells are routinely cultured in DMEM growth medium (Gibco BRL, 41966) containing 2 mM L-Glutamine (Invitrogen Code no. 25030-024) and 10% (v/v) foetal bovine serum (FBS)) in a 5% CO2 air incubator at 37° C.
# To undertake the assay, the R^+ cells are seeded at 5×10^3 cells/well in DMEM plus 1% foetal calf serum, 1% L-glutamine in 96-well black Packard View plates (PerkinElmer 6005182) and incubated at 37° C. (+5% CO2) in a humidified incubator. […]
# Following the compound treatment, the R^+ cells are stimulated with a final concentration of 30 nM IGF1 (Gropep IM001) for 20 minutes at 37° C. […] Additionally, in-house antibodies raised against phospho IGF1R were also used at a suitable titre determined for each batch. […]
# The Green Fluorescent phospho IGF1R-associated signal in each well was measured using an Acumen Explorer HTS Reader (TTP Labtech Ltd., Cambridge). Phospho IGF1R-associated fluorescence emission can be detected at 530 nm following excitation at 488 nm. […] These fluorescent objects can be quantified and provide a measure of the phospho IGF1R levels in cells. […]
# [3] = target: T2, human cytochrome P450 (CYP) 2D6 (Homo sapiens, UniProt P10635); experiment: Cytochrome P450 Inhibition Assay 2D6; type: in vitro ADME; details: test compound final concentrations 0.1-10 μM; substrate MAMC
# T2 construct: made in house; host or cells: yeast cell lines (microsomal fractions)
# T2 sequence (P10635 whole entry): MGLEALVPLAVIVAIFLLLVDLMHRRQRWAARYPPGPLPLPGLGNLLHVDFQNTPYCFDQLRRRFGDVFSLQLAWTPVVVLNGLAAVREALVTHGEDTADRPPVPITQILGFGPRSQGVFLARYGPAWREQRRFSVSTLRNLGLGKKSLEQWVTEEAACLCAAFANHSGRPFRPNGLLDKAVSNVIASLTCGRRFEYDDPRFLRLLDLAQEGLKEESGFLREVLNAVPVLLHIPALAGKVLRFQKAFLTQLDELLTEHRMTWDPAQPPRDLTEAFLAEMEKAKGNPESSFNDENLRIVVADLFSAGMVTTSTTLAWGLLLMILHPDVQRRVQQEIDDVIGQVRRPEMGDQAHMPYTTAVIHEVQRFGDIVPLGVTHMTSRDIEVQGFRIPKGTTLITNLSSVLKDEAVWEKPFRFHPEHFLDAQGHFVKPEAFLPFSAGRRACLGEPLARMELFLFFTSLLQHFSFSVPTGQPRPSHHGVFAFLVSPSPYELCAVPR
# Description: The inhibitory potential (IC50) of test compounds against 5 human cytochrome P450 (CYP) isoforms (1A2, 2C9, 2C19, 3A4 and 2D6) was assessed using an automated fluorescent end point in vitro assay modified from Crespi (Crespi and Stresser, 2000). Microsomal subcellular fractions prepared from Yeast cell lines expressing each human CYP isoform were used as an enzyme source in this assay. The activity of the 5 major human CYPs was determined from the biotransformation of a number of coumarin substrates to fluorescent metabolites, in the presence of NADPH. […] Stock solutions of each CYP, with its respective substrate, were prepared in phosphate buffer pH7.4 (see Table 1) and 178 μl was added to the well of a black solid, flat bottom, 300 μl 96 well is microtitre plate (Corning Costar). […] After pre-incubating at 37° C. for 5 min the reactions were started with addition of NADPH (20 μl, concentration shown in Table 1). […] The appropriate solvent controls and substrate blanks were included in each experiment to assess control activity and identify any inherent fluorescence due to the test compounds. […] The plates were read on a fluorimeter (Spectrafluor Plus) at the appropriate excitation and emission wavelengths (listed in Table 2) and the percent activity, corrected for control, was plotted against the test compound concentration.
# [4] = target: hERG (human ether-a-go-go-related gene) ion channel (Homo sapiens, UniProt Q12809); experiment: hERG; type: cell-based
# Sequence of hERG (human ether-a-go-go-related gene) ion channel (Q12809 whole entry): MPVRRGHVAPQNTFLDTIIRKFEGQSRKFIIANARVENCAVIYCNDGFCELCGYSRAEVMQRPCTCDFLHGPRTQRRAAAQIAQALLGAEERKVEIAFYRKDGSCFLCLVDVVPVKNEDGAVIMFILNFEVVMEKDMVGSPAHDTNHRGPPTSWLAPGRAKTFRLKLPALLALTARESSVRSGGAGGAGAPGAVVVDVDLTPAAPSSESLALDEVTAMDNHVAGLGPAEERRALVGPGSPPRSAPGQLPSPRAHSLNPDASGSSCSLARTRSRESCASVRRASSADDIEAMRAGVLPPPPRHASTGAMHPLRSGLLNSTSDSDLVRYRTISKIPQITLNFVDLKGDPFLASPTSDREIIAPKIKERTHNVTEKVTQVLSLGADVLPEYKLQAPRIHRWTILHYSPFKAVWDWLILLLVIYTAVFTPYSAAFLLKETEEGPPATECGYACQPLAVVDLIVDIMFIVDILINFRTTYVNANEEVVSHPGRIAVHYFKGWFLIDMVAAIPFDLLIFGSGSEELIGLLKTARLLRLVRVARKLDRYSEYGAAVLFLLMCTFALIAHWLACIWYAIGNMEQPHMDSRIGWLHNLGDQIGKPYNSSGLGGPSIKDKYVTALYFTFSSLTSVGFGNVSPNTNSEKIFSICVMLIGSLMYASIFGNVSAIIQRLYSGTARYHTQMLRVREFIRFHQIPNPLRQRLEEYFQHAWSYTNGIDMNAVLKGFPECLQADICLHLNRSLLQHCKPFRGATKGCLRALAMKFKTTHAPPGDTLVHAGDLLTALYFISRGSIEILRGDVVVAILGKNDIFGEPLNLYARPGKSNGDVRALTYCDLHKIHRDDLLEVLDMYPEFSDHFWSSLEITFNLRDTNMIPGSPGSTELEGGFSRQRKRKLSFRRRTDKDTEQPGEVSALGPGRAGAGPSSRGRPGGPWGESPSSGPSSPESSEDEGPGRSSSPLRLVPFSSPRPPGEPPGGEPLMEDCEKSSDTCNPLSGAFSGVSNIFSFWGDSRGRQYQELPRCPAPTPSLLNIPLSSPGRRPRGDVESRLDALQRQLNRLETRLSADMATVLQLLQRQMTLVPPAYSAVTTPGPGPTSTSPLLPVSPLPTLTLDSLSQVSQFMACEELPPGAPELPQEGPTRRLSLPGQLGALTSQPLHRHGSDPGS
# Source text: Conclusion: Compounds of the present invention (Example 1) while showing good IGF inhibition, also show decreased Cytochrome P450 inhibition when compared to a known IGF inhibitor (Comparative Example A). Low inhibition of Cytochrome P450 is desirable to ameliorate potential drug: drug interactions. hERG hERG can be tested according to the methods described in Journal of Pharmacolgical and Toxicological Methods 2006, 54, 189-199.
logD [1],IC50 [2] [µM],IC50 [3] [µM],SMILES,IC50 [4] [µM]
3.43,0.00268,> 10,"CCc1cc(Nc2cc(OC)nc(N3CCC[C@H]3c3cc(-c4ncccn4)no3)n2)n[nH]1 [Comparative Example A, (S)-6-Methoxy-2-{2-[3-(pyrimid-2-yl)isoxazol-5-yl]pyrrolidin-1-yl}-4-(5-ethyl-1H-pyrazol-3-ylamino)pyrimidine]",25.2
3.12,0.00429,> 10,"COc1cc(Nc2cc(C)n[nH]2)nc(N2CCC[C@H]2c2cc(-c3ncccn3)no2)n1 [Example 1, (S)-6-Methoxy-2-{2-[3-(pyrimid-2-yl)isoxazol-5-yl]pyrrolidin-1-yl}-4-(5-methyl-1H-pyrazol-3-ylamino)pyrimidine]",> 32

# Source: patent US20080269266A1, “NOVEL COMPOUNDS 747” (ASTRAZENECA AB, priority 2007, published 2008)
